According to ChEMBL document CHEMBL1201862, “PubChem BioAssay data set” (2004):
Active and inactive are the calls of the source.

How the values were obtained:
[1] = molecular target: Heat shock protein HSP 90-alpha (Homo sapiens, UniProt P07900); format: functional, organism-based
[2] = HGIII-sPLA2 enzyme inhibition potency – biochemical, QFRET, IC50, dose response (AID 743457);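 note: green fluorescence rise as the enzyme cleaves BODIPY PC-A2 in liposomes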
Nonstructural protein 1 = Nonstructural protein 1 (Influenza A virus, UniProt Q194T2); format: functional, Influenza A virus (A/California/07/2009(H1N1))
[3] = molecular target: Cystic fibrosis transmembrane conductance regulator/Golgi-associated PDZ and coiled-coil motif-containing protein (Homo sapiens, UniProt P13569+Q9HD26); experiment: potency against CAL PDZ-peptide interaction – biochemical, fluorescence polarization, Cerulean-tagged CAL PDZ, cherry-picks, dose response (AID 504773)
[4] = molecular target: Acyl-homoserine lactone acylase PvdQ (Pseudomonas aeruginosa (strain LESB58), UniProt Q9I194); experiment: PvdQ acylase enzyme activity blockers – biochemical, fluorescence, plate reader and imaging, cherry-picks, dose response (AID 493231)
Interleukin-8 [5] = molecular target: T1, Interleukin-8 (Homo sapiens, UniProt P10145); experiment: Dose Response confirmation of uHTS small molecule hits for cystic fibrosis induced NFkb Inhibitors in a TNFa-induced IL8 counterscreen.; format: functional; conditions: read-out: IC50_Mean
T1 sequence (P10145 whole entry): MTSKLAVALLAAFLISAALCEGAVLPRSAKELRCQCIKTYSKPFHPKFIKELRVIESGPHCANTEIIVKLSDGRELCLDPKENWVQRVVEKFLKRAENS

Interleukin-8 [6] = molecular target: T1, Interleukin-8; experiment: Dose Response confirmation of uHTS small molecule hits for cystic fibrosis induced NFkb Inhibitors in a PAF-induced IL8 counterscreen.; format: functional; conditions: read-out: IC50_Mean
Beta-galactosidase = Beta-galactosidase (Escherichia coli, UniProt Q8VNN2); experiment: Dose response counterscreen for EBI2 assay utilizing the enzyme, b-galactosidase.; format: functional
[7] = molecular target: T2, Ubiquitin-conjugating enzyme E2 N (Homo sapiens, UniProt P61088); format: functional
T2 sequence (P61088 whole entry): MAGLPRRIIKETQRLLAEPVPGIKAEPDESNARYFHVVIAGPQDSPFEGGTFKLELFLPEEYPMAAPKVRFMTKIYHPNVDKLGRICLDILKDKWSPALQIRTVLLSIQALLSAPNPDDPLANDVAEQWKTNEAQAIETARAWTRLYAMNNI

Bcl-2-related protein A1 = Bcl-2-related protein A1 (Mus musculus, UniProt Q07440); format: functional;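 note: confirmatory dose–response counterscreen on Bfl-1, used to check hits from a UBC13 polyubiquitin inhibitor campaign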
[8] = molecular target: T2, Ubiquitin-conjugating enzyme E2 N; format: functional; remark: listed apart in the source
[9] = molecular target: T3, E3 ubiquitin-protein ligase XIAP (Homo sapiens, UniProt P98170); experiment: Counter Screen using XIAP-Bir3 for Chemical Antagonists of Bir1/2 domains of IAP-family anti-apoptotic proteins. [Related pubchem assays (depositor defined):AID1018, AID1449, AID1514, AID1638, AID1749, AID1750, AID488957, AID488963]
[10] = molecular target: T3, E3 ubiquitin-protein ligase XIAP; experiment: small molecules displacing peptide from XIAP – biochemical, IAP family, fluorescence polarization (AID 1018); format: functional
[11] = molecular target: Female germline-specific tumor suppressor gld-1 (Caenorhabditis elegans, UniProt Q17339); experiment: blockers of GLD-1/TGE RNA complex formation – biochemical, fluorescence polarization, C. elegans, dose response (AID 2802);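 note: fluorescence polarization of labeled TGE RNA bound by purified gld-1 protein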
Protein Rev = Protein Rev (Human immunodeficiency virus type 1 group M subtype B (isolate HXB2)(HIV-1), UniProt P04618); experiment: blockers of HIV Rev/RRE RNA complex – biochemical, fluorescence polarization, HIV-1, dose response (AID 434976); design: species or system Human immunodeficiency virus 1
[12] = molecular target: T4, Serine/threonine-protein phosphatase (Candida dubliniensis (strain CD36 / CBS 7987 / NCPF 3949 / NRRLY-17841) (Yeast), UniProt B9W6M3); experiment: blockers of CaCl2-induced CDRE-lacZ signaling – S. cerevisiae, luminescence, secondary, dose response (AID 2388); format: functional, cell-based;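 note: yeast reporter cells carrying a calcineurin-responsive lacZ construct stimulated with calcium chloride; luminescent beta-galactosidase reporter signal in whole cells rather than isolated phosphatase activity; potency for inhibition where a drop in reporter signal means calcineurin blockade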
T4 sequence (B9W6M3 whole entry): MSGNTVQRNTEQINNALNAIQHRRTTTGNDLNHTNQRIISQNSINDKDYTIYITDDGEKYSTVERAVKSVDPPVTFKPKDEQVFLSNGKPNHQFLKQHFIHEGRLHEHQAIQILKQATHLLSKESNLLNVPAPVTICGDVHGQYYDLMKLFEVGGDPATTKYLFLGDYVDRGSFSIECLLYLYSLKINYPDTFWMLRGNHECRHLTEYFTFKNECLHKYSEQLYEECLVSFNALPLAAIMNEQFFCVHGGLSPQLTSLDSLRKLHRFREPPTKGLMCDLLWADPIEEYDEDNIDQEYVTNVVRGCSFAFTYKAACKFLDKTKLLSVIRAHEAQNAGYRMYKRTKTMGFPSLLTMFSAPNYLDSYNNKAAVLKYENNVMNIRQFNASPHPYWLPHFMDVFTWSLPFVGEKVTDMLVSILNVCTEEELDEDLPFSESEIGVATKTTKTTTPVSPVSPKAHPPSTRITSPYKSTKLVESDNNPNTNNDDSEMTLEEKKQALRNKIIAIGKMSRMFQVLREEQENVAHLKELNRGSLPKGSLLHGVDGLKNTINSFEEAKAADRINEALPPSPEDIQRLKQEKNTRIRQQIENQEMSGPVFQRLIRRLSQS

[13] = NIH-3T3 fibroblast cytotoxicity, dose response, cytotoxicity control, cell-based, fluorescence, Alamar Blue, secondary assay (AID 2327); format: functional;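 note: NIH-3T3 mouse fibroblasts cultured with fluconazole at 8 µg/mL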
[14] = fluconazole-exposed Candida albicans growth modulators – fluorescence, retest, confirmation (AID 2467); format: functional, cell-based
[15] = antiviral protection against BTV-induced cell death – arbovirus, BSR cells, confirmation (AID 1250); format: functional;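 note: protection from viral cytopathic effect measured as cell viability by ATP luminescence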
[16] = molecular target: ATP-dependent molecular chaperone HSP82 (Candida albicans (strain WO-1) (Yeast), UniProt C4YTQ8); experiment: steroid-induced GRE reporter decrease in yeast – S. cerevisiae, luminescence, Hsp90 inhibitor project, dose response (AID 2400); format: functional, cell-based;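 note: beta-galactosidase luminescence from glucocorticoid response element reporter as proxy for Hsp90 function; inhibitor potency where signal loss means Hsp90 inhibition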
Fatty acid synthase [17] = molecular target: T5, Fatty acid synthase (Homo sapiens, UniProt P49327); experiment: inhibition of human FAS-TE enzyme activity – biochemical, endpoint fluorescence intensity, uHTS hits, dose response (AID 624327); format: functional;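 note: fluorescence from hydrolysis of an O-methyl fluorescein acyl ester substrate by the enzyme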
Fatty acid synthase [18] = molecular target: T5, Fatty acid synthase; experiment: inhibition of human FAS-TE enzyme activity – biochemical, kinetic fluorescence intensity, dose response (AID 624326); format: functional;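 note: rate of fluorescence rise from hydrolysis of a fluorogenic O-methyl fluorescein ester substrate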
[19] = molecular target: G-protein coupled receptor 55 (Homo sapiens, UniProt Q9Y2T6); experiment: inhibition of LPI-stimulated GPR55 beta-arrestin translocation – imaging, U2OS, beta-arrestin-GFP, LPI agonist, primary screen (AID 2013); format: functional;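 note: antagonist potency measured as reduced agonist-driven arrestin aggregation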
G-protein coupled receptor 55, sequence (Q9Y2T6 whole entry): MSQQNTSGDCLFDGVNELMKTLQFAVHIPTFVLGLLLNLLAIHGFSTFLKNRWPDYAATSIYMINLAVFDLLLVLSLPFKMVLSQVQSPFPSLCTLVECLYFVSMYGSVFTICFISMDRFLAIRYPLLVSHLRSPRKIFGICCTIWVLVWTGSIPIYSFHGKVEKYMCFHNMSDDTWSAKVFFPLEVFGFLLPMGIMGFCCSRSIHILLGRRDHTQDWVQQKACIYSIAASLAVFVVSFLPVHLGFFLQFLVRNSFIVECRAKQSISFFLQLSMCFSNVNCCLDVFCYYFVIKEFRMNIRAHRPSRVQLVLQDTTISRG

T3 sequence (P98170 whole entry): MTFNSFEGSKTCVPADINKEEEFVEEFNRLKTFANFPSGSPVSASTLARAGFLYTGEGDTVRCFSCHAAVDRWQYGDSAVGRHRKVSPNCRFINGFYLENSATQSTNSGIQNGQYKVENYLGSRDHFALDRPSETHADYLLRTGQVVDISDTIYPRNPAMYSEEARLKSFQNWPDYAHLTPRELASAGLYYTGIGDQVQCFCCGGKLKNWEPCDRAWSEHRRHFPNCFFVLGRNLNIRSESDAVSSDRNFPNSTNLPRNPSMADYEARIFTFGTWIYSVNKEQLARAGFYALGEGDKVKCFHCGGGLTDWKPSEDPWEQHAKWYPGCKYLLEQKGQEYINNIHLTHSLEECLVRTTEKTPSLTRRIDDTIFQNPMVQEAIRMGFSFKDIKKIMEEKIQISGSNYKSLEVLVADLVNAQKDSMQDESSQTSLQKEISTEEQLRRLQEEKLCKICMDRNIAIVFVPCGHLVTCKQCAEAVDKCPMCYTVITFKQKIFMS
T5 sequence (P49327 whole entry): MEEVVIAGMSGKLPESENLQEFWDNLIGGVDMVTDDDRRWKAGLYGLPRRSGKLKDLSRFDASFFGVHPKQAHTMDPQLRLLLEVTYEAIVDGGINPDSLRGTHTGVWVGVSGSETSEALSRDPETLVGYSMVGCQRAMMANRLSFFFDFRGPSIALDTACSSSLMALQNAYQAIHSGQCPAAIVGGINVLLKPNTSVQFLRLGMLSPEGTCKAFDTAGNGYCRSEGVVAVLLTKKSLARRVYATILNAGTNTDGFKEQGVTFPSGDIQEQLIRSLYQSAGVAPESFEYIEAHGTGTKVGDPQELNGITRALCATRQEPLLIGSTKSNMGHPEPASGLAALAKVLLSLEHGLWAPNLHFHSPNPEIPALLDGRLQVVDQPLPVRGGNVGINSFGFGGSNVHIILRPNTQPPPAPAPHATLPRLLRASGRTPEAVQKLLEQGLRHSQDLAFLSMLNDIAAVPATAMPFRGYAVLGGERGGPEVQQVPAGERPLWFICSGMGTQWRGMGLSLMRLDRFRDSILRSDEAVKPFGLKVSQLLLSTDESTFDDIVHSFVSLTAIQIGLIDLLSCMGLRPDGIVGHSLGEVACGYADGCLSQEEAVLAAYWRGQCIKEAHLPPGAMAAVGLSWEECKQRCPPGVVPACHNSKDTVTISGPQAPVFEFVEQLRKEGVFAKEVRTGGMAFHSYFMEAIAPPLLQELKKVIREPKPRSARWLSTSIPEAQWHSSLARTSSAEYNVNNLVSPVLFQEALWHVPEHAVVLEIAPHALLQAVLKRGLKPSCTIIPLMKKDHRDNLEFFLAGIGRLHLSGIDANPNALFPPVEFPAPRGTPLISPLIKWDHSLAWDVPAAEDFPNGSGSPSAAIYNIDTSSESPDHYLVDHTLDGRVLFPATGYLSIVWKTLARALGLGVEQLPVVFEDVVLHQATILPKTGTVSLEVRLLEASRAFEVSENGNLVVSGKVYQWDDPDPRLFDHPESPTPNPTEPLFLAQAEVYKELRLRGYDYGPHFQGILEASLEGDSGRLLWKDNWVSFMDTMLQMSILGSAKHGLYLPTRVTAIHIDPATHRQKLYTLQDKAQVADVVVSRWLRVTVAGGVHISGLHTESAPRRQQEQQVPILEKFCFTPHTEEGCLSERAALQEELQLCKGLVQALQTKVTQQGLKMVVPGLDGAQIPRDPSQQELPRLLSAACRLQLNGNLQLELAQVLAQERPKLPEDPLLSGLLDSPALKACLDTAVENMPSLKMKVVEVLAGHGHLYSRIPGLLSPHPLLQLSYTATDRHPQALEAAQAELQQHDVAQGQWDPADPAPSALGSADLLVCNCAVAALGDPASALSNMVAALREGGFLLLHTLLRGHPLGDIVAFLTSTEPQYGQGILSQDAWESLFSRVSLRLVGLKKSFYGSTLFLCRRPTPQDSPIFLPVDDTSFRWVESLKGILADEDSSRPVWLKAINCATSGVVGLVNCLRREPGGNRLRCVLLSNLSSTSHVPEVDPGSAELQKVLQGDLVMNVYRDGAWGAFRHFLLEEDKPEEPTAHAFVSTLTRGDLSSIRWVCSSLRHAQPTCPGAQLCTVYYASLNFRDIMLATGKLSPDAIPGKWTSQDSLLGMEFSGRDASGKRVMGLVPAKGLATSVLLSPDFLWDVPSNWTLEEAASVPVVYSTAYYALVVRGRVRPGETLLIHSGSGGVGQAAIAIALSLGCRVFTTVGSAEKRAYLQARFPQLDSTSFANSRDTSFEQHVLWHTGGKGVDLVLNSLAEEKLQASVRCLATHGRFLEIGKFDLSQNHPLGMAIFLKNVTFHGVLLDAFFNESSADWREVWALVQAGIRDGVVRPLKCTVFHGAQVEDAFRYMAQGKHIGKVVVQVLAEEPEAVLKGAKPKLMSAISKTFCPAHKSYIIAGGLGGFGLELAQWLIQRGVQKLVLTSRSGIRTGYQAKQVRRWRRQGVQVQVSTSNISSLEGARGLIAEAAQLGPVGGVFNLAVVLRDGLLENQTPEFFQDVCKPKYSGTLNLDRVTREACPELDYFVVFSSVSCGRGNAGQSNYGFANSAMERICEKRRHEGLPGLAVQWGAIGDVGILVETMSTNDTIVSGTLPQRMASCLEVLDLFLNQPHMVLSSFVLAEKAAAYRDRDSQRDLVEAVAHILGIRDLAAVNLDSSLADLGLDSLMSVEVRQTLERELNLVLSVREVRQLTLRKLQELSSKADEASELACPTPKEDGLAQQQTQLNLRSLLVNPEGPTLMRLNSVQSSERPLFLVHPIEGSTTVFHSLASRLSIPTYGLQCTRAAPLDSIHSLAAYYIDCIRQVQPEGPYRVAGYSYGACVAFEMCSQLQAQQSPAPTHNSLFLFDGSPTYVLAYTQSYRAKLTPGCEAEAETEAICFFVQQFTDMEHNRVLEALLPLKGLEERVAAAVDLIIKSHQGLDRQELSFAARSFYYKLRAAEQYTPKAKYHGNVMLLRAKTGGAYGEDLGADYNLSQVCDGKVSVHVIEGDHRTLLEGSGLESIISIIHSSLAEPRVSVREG
Beta-galactosidase, sequence (Q8VNN2 whole entry): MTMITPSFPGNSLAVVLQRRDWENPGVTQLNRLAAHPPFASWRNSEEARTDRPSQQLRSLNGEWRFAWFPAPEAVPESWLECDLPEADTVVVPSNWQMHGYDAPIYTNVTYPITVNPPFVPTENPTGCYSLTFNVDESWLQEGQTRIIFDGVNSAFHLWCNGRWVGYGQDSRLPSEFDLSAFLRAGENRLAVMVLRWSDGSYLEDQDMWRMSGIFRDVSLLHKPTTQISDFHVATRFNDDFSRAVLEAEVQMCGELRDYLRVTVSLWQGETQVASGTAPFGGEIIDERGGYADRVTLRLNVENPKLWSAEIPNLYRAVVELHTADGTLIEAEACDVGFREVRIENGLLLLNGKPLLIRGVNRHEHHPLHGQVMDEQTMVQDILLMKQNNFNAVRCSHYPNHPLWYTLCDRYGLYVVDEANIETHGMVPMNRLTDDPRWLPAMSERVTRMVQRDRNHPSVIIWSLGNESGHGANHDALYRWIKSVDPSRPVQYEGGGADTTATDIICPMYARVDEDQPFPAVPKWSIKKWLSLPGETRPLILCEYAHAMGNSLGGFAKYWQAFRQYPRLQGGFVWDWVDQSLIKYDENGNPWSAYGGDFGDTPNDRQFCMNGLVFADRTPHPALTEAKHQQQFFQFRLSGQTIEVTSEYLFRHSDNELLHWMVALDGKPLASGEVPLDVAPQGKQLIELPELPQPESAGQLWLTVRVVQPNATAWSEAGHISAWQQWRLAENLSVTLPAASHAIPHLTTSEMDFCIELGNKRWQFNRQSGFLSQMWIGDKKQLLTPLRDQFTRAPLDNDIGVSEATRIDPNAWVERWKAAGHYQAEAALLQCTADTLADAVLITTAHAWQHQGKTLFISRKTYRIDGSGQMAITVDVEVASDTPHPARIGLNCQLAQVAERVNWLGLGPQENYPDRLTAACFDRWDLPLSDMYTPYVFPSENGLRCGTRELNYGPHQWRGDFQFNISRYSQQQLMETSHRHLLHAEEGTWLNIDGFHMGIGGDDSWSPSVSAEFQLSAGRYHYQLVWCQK
Bcl-2-related protein A1, sequence (Q07440 whole entry): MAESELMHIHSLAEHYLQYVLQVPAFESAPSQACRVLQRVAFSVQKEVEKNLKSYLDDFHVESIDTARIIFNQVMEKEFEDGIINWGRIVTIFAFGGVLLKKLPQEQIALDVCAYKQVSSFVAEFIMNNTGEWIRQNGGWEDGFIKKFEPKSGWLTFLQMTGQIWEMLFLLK
Nonstructural protein 1, sequence (Q194T2 whole entry): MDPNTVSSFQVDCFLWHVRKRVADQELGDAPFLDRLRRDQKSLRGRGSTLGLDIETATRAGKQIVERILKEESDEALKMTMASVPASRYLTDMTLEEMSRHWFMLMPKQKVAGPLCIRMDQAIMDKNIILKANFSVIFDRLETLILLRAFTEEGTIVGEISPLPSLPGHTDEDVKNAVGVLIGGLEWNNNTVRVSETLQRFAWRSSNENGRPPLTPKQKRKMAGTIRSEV
Protein Rev, sequence (P04618 whole entry): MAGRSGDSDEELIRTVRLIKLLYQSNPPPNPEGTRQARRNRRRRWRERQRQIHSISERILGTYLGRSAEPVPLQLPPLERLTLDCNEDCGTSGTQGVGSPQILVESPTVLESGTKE

With `CN(C)c1ccc(/C=c2\c3ccccc3n3c2cc(-c2ccccc2)[n+]3C)cc1` the AC50 [1] was 4.19 µM (active), the IC50 [2] was 66.8 µM (inactive) and the IC50 (Nonstructural protein 1) was 6.8 µM (active). The AC50 [3] was 94 µM (active).

For `CN(c1ncnc(N)c1[N+](=O)[O-])C1CCCCC1`, the AC50 [4] was 15.3 µM (active), the IC50 (Interleukin-8 [5]) was 46.8 µM (inactive) and the IC50 (Interleukin-8 [6]) was 16.9 µM (inactive).

With `Cc1ccc(N(C(=O)c2snc(C(N)=O)c2N)C(C(=O)NC2CCCC2)c2ccc(C)o2)cc1` (stereo not given) the IC50 (Beta-galactosidase) was > 80 µM (inactive), the IC50 [7] was 19.9 µM (active) and the IC50 (Bcl-2-related protein A1) was > 20 µM (inactive). The IC50 [8] was 10.4 µM (active).

In the case of `O=C(O)C1C2C=CC(C2)C1C(=O)Nc1ccc(C(=O)N2CCCCC2)cc1` (stereo not given), the IC50 [9] is reported as > 100 µM (inactive) and the IC50 [10] is reported as > 100 µM (not active).

For `CCOC(=O)c1cc2c(ccn2C)n1CC(=O)N1CCN(c2cccc(C(F)(F)F)c2)CC1`, the IC50 [11] was > 6.63 µM (active) and the IC50 (Protein Rev) was > 75.4 µM (not active).

In the case of `COc1ccc(CCC(=O)OCC(=O)Nc2ccc(C)c(S(=O)(=O)N(C)C)c2)cc1`, the IC50 [9] is reported as > 100 µM (inactive) and the IC50 [10] is reported as > 100 µM (not active).

For `Cc1oc2ccc(OC(=O)N(C)C)cc2c1C(=O)OC(C)C`, the EC50 [12] was > 180 µM (inactive), the EC50 [13] was 137 µM (inconclusive) and the EC50 [14] was 1.34 µM (active). The IC50 [15] was 35.1 µM (active) and the EC50 [16] was > 160 µM (inactive).

With `CCS(=O)(=O)c1ccc(-c2csc(-c3ccc(Cl)cc3)n2)c(Cl)c1Cl` the IC50 (Fatty acid synthase [17]) was 2.71 µM (active), the IC50 (Fatty acid synthase [18]) was 1.86 µM (active) and the IC50 [19] was 5.51 µM (active).
